Assays:
[1] = target: T1, Melanin-concentrating hormone receptor 1 (Homo sapiens, UniProt Q99705); assay: Binding affinity towards human MCH-R1 evaluated by its ability to displace radioligand [125I]Tyr13]-MCH
[2] = target: T1, Melanin-concentrating hormone receptor 1; assay: Inhibitory concentration against human MCH-R1-stimulated [Ca2+] influx

T1 sequence (Q99705 whole entry): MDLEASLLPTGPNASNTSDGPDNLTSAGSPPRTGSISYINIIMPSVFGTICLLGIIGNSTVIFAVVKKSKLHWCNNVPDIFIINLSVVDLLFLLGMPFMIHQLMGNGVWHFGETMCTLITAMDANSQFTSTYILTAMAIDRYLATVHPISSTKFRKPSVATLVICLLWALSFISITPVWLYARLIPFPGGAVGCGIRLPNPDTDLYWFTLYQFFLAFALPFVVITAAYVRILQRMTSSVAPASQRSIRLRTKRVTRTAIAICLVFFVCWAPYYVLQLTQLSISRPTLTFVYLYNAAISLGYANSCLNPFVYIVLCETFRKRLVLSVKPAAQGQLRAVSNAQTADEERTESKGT

Ki [1]	IC50 [2]	SMILES
3000 nM	–	CC(=O)N(C)C1CCN(c2ccc(NC(=O)c3ccc(-c4ccccc4)cc3)cc2)C1 (stereo unspecified)
8.6 nM	–	CN(CCCc1ccccc1)C1CCN(c2ccc(NC(=O)c3ccc(-c4ccccc4)cc3)cc2)C1 (stereo unspecified)
5.2 nM	–	CN(C)C1CCN(c2ccc(NC(=O)c3ccc(-c4ccccc4)cc3)cc2)C1 (stereo unspecified)
16 nM	–	COc1ccc(-c2ccc(C(=O)Nc3ccc(N4CCC(N(C)C)C4)cc3)cn2)cc1 (stereo unspecified)
> 10000 nM	–	CN(C)C1CCN(c2ccc(NC(=O)c3ccc(Oc4ccccc4)cc3)cc2)C1 (stereo unspecified)
> 10000 nM	–	CCN1CCN(c2ccc(C(=O)Nc3ccc(N4CCC(N(C)C)C4)cc3)cn2)CC1 (stereo unspecified)
52 nM	–	COc1ccc(CCCNC(=O)Nc2ccc(N3CCC(N(C)C)C3)cc2)cc1 (stereo unspecified)
5.9 nM	–	CCN(C)C1CCN(c2ccc(NC(=O)c3ccc(-c4ccccc4)cc3)cc2)C1 (stereo unspecified)
> 10000 nM	–	CN(C)C1CCN(c2ccc(NC(=O)c3ccc4c(c3)C(=O)c3ccccc3-4)cc2)C1 (stereo unspecified)
130 nM	–	CN(Cc1ccccn1)C1CCN(c2ccc(NC(=O)c3ccc(-c4ccccc4)cc3)cc2)C1 (stereo unspecified)
3.1 nM	166 nM	CNC1CCN(c2ccc(NC(=O)c3ccc(-c4ccccc4)cc3)cc2)C1 (stereo unspecified)
12 nM	–	CN(C)C1CCN(c2ccc(NC(=O)C3CCC(c4ccc(Cl)cc4)CC3)cc2)C1 (stereo unspecified)
14 nM	–	CN(C)C1CCN(c2ccc(NC(=O)C3CCC(c4ccccc4)CC3)cc2)C1 (stereo unspecified)
31 nM	–	CN(Cc1ccccc1)C1CCN(c2ccc(NC(=O)c3ccc(-c4ccccc4)cc3)cc2)C1 (stereo unspecified)
250 nM	–	CN(C)C1CCN(c2ccc(NC(=O)CCCC(=O)c3ccccc3)cc2)C1 (stereo unspecified)
> 10000 nM	–	CN(C)C1CCN(c2ccc(NC(=O)c3ccc(-n4ccnc4)cc3)cc2)C1 (stereo unspecified)
> 10000 nM	–	CN(C)C1CCN(c2ccc(NC(=O)c3ccc(-c4cnco4)cc3)cc2)C1 (stereo unspecified)
110 nM	–	CN(C)C1CCN(c2ccc(NC(=O)c3ccc(-c4ccccc4)nc3)cc2)C1 (stereo unspecified)
5.5 nM	–	CN(CC1CC1)C1CCN(c2ccc(NC(=O)c3ccc(-c4ccccc4)cc3)cc2)C1 (stereo unspecified)
43 nM	–	CN(C)C1CCN(c2ccc(NC(=O)NCCCc3ccccc3)cc2)C1 (stereo unspecified)
> 10000 nM	–	CN(C(=O)OC(C)(C)C)C1CCN(c2ccc(NC(=O)c3ccc(-c4ccccc4)cc3)cc2)C1 (stereo unspecified)
4300 nM	–	CN(C)C1CCN(c2ccc(NC(=O)Cc3ccc(-c4ccccc4)cc3)cc2)C1 (stereo unspecified)
2400 nM	–	CN(C)C1CCN(c2ccc(NC(=O)c3ccc(N4CCCCC4)nc3)cc2)C1 (stereo unspecified)
13 nM	–	CN(C)C1CCN(c2ccc(NC(=O)CCC(=O)c3ccc(Cl)cc3)cc2)C1 (stereo unspecified)
34 nM	–	CN(C)C1CCN(c2ccc(NC(=O)c3ccc(-c4cccs4)cc3)cc2)C1 (stereo unspecified)
